According to article PMC11219871, “Epigenetic-based differentiation therapy for Acute Myeloid Leukemia” (Nature Communications, 2024):
Values joined by “and” are separate entries in the source; they are usually repeats but may differ in a detail not shown here. Equal entries are not always repeated.

How the values were obtained:
[1] = system: ML-2; assay: Differentiation-apoptosis assay, CD11b / annexin-V / Sytox Green / myeloid markers flow cytometry; assay type: cell-based, human; design: Cell viability: concentration or dose not given beside the values; CD11b levels: unit not given here; conditions: for CD11b / Cell viability: replicates (Fig 4A)
Experimental: (§1) Next, the cells were washed twice with phosphate-buffered saline (PBS) and resuspended in 1X Binding Buffer at a concentration of 1 × 10^6 cells/mL. An 8-µL aliquot of APC-CD11b (BD Pharmingen, Franklin Lakes, NJ, USA) and 1 µL of FITC annexin-V (AV) (BD Pharmingen, Franklin Lakes, NJ, USA) antibodies were added and incubated for 15 min at room temperature in the dark. Finally, after the addition of 400 µL of 1X Binding Buffer to each tube, samples were collected on a BD FACSCanto flow cytometer (Becton Dickinson, San Jose, CA, USA) and analyzed using FlowJo software.
(§2) For the rest of experiments, the mix of antibodies (2 µL of BV786-CD13, Cat No, 744748 BD; 1 µL of diluted 1:10 antibody of PB-HLADR, Cat No 307633, Biolegend; 5 µL of APCH7-CD14, Cat No 641394, BD) was added to 10 µL of Brilliant Stain Buffer Plus (Becton Dickinson, San Jose, CA, USA). Then, 1 million cells (volume of 250 µL) were added and incubated for 30 min at room temperature in darkness. After 10 min incubation at room temperature with 2 mL of FACSLysing 1X, cells were centrifuged at 540 g for 5 min and washed twice with FACSBuffer. Finally, after centrifugation at 540 g for 5 min cells were resuspended in FACSBuffer.

[2] = system: MOLM-13; assay: as above; assay type: cell-based, human; design: Cell viability (%): concentration or dose not given beside the values; CD11b levels: unit not given here
Experimental: as §1, §2

[3] = system: MV4-11; assay: as above; assay type: cell-based, human; design: Cell viability (%): concentration or dose not given beside the values; CD11b levels: unit not given here
Experimental: as §1, §2

[4] = system: GF-D8; assay: Cell proliferation assay: GI50; assay type: cell-based
Experimental: (§3) Cell proliferation was analyzed using the CellTiter 96 Aqueous One Solution Cell Proliferation Assay (Promega, Madison, WI). This is a colorimetric method for determining the number of viable cells in proliferation. For the assay, suspension cells were cultured in triplicate at a density of 1 × 10^6 cells/mL in 96-well plates (100.000 cells/well, 100 µL/well), using only the 60 inner wells to avoid any border effects. After 48 h of treatment with different doses of each compound (0, 0.001, 0.01, 0.1, 0.2, 0.4, 0.6, 0.8, 1, 2, 3, 4, 5 and 10 µM), the plates were centrifuged at 800 g for 10 min followed by removal of the medium. Then, the cells were incubated with 100 μL/well of medium and 20 μL/well of CellTiter 96 Aqueous One Solution reagent for 1–3 h. The absorbance was recorded at 490 and 650 nm as reference wavelengths using 96-well plate readers until the absorbance of the control cells without treatment was approximately 0.8 AU. The background absorbance was measured in wells with only cell line medium and solution reagent. First, the average of the absorbance from the control wells was subtracted from all other absorbance values. Data were calculated as the percentage of total absorbance of treated cells/absorbance of non-treated cells. The GI50 values of the different compounds were determined using non-linear regression plots made with GraphPad Prism v5 software.

[5] = system: HEL; assay: Cell proliferation assay: GI50; assay type: cell-based; conditions: replicates 1-3
Experimental: as §3

[6] = system: KASUMI-1; assay: Cell proliferation assay: GI50; assay type: cell-based
Experimental: as §3

[7] = system: M-07e; assay: Cell proliferation assay: GI50; assay type: cell-based; conditions: replicates 1-3
Experimental: as §3

[8] = system: MONO-MAC-6; assay: Cell proliferation assay: GI50; assay type: cell-based
Experimental: as §3

[9] = system: NB-4; assay: Cell proliferation assay: GI50; assay type: cell-based
Experimental: as §3

[10] = system: OCI-AML2; assay: Cell proliferation assay: GI50; assay type: cell-based
Experimental: as §3

[11] = system: OCI-AML3; assay: Cell proliferation assay: GI50; assay type: cell-based
Experimental: as §3

[12] = system: TF-1; assay: Cell proliferation assay: GI50; assay type: cell-based
Experimental: as §3

[13] = system: THP-1; assay: Cell proliferation assay: GI50; assay type: cell-based
Experimental: as §3

[14] = system: UT-7; assay: Cell proliferation assay: GI50; assay type: cell-based
Experimental: as §3

[15] = MOLM-13, 48 h treatment, replicates 1-3 (Suppl. Fig. 5A)
[16] = MV4-11, 48 h treatment, replicates 1-3 (Suppl. Fig. 5A)
[17] = ML-2, daily treatment, time 0 days, replicates 1-3 (Figure 2B)
[18] = ML-2, daily treatment, time 2 days, replicates 1-3 (Figure 2B)
[19] = ML-2, daily treatment, time 4 days, replicates 1-3 (Figure 2B)
[20] = ML-2, daily treatment, time 6 days, replicates 1-3 (Figure 2B)
[21] = ML-2, daily treatment, time 8 days, replicates 1-3 (Figure 2B)
[22] = MOLM-13, daily treatment, time 0 days
[23] = MOLM-13, daily treatment, time 2 days
[24] = MOLM-13, daily treatment, time 4 days
[25] = MOLM-13, daily treatment, time 6 days
[26] = MOLM-13, daily treatment, time 8 days
[27] = MV4-11, daily treatment, time 0 days
[28] = MV4-11, daily treatment, time 2 days
[29] = MV4-11, daily treatment, time 4 days
[30] = MV4-11, daily treatment, time 6 days

Cc1[nH]c2ccccc2c1CCNCc1ccc(/C=C/C(=O)NO)cc1 [Panobinostat, reference compound]
CD11b ([1]; ML-2, 48 h): 36.1% and 27.0% and 28.8% | Cell viability ([1]; ML-2, 48 h): 69.0% and 63.1% and 66.5% | CD11b (%) [2, 15]: 39.6% and 32.7% and 32.0% | Cell viability (%) [2, 15]: 45.5% and 59.6% and 57.8% | CD11b (%) [3, 16]: 12.9% and 19.4% and 18.7% | Cell viability (%) [3, 16]: 38.3% and 43.2% and 44.2%

COc1cc2nc(-c3cc(C)oc3C)cc(NCC3CCN(c4ncc(C(=O)NO)cn4)CC3)c2cc1OC [CM-1758, 2-[4-[[[2-(2,5-dimethyl-3-furyl)-6,7-dimethoxy-4-quinolyl]amino]methyl] -1-piperidyl]pyrimidine-5-carbohydroxamic acid]
GI50 ([4]; 48 h, GF-D8, 48 h): > 10000 nM | GI50 ([4]; GF-D8, replicates 1-3): > 10000 nM | GI50 ([5]; Homo sapiens): 1880 nM | GI50 [5]: 1320 nM and 1360 nM | GI50 ([6]; Homo sapiens, Kasumi 1, 48 h, KASUMI-1, 48 h): 578 nM | GI50 ([6]; Homo sapiens, Kasumi 1, KASUMI-1, replicates 1-3): 721 nM | GI50 ([6]; KASUMI-1, replicates 1-3): 635 nM and 379 nM | GI50 [7]: 1320 nM and 1990 nM and 1190 nM | GI50 ([8]; Homo sapiens, MONO-MAC-6, 48 h): 617 nM | GI50 ([8]; Homo sapiens, MONO-MAC-6, MONO-MAC-6, replicates 1-3): 785 nM | GI50 ([8]; MONO-MAC-6, replicates 1-3): 600 nM and 466 nM | GI50 ([9]; Homo sapiens, NB-4, 48 h): 857 nM | GI50 ([9]; Homo sapiens, NB-4, NB-4, replicates 1-3): 987 nM | GI50 ([9]; NB-4, replicates 1-3): 714 nM and 870 nM | GI50 ([10]; Homo sapiens, OCI-AML2, 48 h): 774 nM | GI50 ([10]; Homo sapiens, OCI-AML2, OCI-AML2, replicates 1-3): 954 nM | GI50 ([10]; OCI-AML2, replicates 1-3): 712 nM and 655 nM | GI50 ([11]; Homo sapiens, OCI-AML-3, OCI-AML3, 48 h): > 10000 nM | GI50 ([11]; Homo sapiens, OCI-AML-3, OCI-AML3, replicates 1-3): > 10000 nM | GI50 ([11]; OCI-AML3, replicates 1-3): > 10000 nM | GI50 ([12]; Homo sapiens, TF-1, TF-1, replicates 1-3): 2960 nM | GI50 ([12]; TF-1, replicates 1-3): 2580 nM and 2690 nM | GI50 ([13]; Homo sapiens, THP-1, 48 h): > 10000 nM | GI50 ([13]; Homo sapiens, THP-1, replicates 1-3): > 10000 nM | GI50 ([13]; THP-1, replicates 1-3): > 10000 nM | GI50 ([14]; Homo sapiens, UT7, UT-7, replicates 1-3): 3680 nM | GI50 ([14]; UT-7, replicates 1-3): 3940 nM and 3670 nM | percentage of CD11b ([1]; ML-2, 260 nM CM-444 or 210 nM CM-1758 daily for 4 days, before injection): > 90% | CD11b (%) ([1]; ML-2, 48 h): 75.6% | CD13 (%) ([1]; ML-2, 48 h): 98.6% | CD14 (%) ([1]; ML-2, 48 h): 2.86% | HLA-DR (%) ([1]; ML-2, 48 h): 17.4% | CD11b ([1]; ML-2, 48 h): 64.3% and 61.7% and 64.6% | Cell viability ([1]; ML-2, 48 h): 89.3% and 72.6% and 87.1% | differentiation level (CD11b) ([1]; ML-2, after 6–8 days of treatment): ~90% | Annexin-V (%) [1, 17]: 0% and 1.81% and 2.3% | CD11b (%) [1, 17]: 9.3% and 9.32% and 7.24% | Annexin-V (%) [1, 18]: 0% and 5.74% and 8.47% | CD11b (%) [1, 18]: 46.98% and 27.2% and 35.8% | Annexin-V (%) [1, 19]: 10.26% and 4.49% and 5.25% | CD11b (%) [1, 19]: 56.51% and 40.8% and 55.87% | Annexin-V (%) [1, 20]: 4.87% and 1.99% and 9.87% | CD11b (%) [1, 20]: 77.98% and 70% and 78.6% | Annexin-V (%) [1, 21]: 5.37% and 6.87% and 10.45% | CD11b (%) [1, 21]: 88.06% and 83.2% and 89.7% | CD11b (%) ([1]; ML-2 cell line, replicates 1-3 (Figure 2A)): 53.45% and 67.6% and 52.5% | CD11b levels ([1]; ML-2 treated daily for 48 h, replicates (Fig 6E)): 45.9 and 51.7 and 43.7 | CD11b (%) ([2]; MOLM-13, 48 h): 93.0% | CD13 (%) ([2]; MOLM-13, 48 h): 54.8% | CD14 (%) ([2]; MOLM-13, 48 h): 35.6% | HLA-DR (%) ([2]; MOLM-13, 48 h): 27.9% | CD11b (%) [2, 15]: 93.5% and 87.6% and 86.0% | Cell viability (%) [2, 15]: 71.1% and 73.4% and 72.7% | differentiation level (CD11b) ([2]; MOLM-13, after 6–8 days of treatment): ~90% | CD11b levels ([2]; MOLM-13, daily treatment for 48 h, replicates 1-3 (Suppl. Fig. 9A)): 61.5 and 58.4 and 65.3 | Annexin-V (%) [2, 22]: 4.46% and 6.55% and 4.89% | CD11b (%) [2, 22]: 6.62% and 4.5% and 6.9% | Annexin-V (%) [2, 23]: 11.4% and 10.2% and 9.87% | CD11b (%) [2, 23]: 73% and 68.5% and 65.7% | Annexin-V (%) [2, 24]: 23.3% and 19.7% and 17.2% | CD11b (%) [2, 24]: 83.3% and 80.2% and 78.3% | Annexin-V (%) [2, 25]: 23.9% and 24.2% and 20.6% | CD11b (%) [2, 25]: 89.9% and 85.1% and 83.1% | Annexin-V (%) [2, 26]: 29.4% and 27.5% and 25.4% | CD11b (%) [2, 26]: 91.9% and 90.1% and 92.4% | CD11b (%) ([2]; MOLM-13 cell line, replicates 1-3 (Figure 2A)): 70.54% and 69.2% and 63% | CD11b (%) ([3]; MV4-11, 48 h): 57.9% | CD13 (%) ([3]; MV4-11, 48 h): 98.1% | CD14 (%) ([3]; MV4-11, 48 h): 56.2% | HLA-DR (%) ([3]; MV4-11, 48 h): 38.4% | CD11b (%) [3, 16]: 47.1% and 53.2% and 55.4% | Cell viability (%) [3, 16]: 80.4% and 85.9% and 86.75% | differentiation level (CD11b) ([3]; MV4-11, after 6–8 days of treatment): ~90% | CD11b levels ([3]; MV4-11, daily treatment for 48 h, replicates 1-3 (Suppl. Fig. 9A)): 37.8 and 40.7 and 46.2 | Annexin-V (%) [3, 27]: 5.32% and 4.14% and 5.2% | CD11b (%) [3, 27]: 11.1% and 6.62% and 5.25% | Annexin-V (%) [3, 28]: 7.65% and 8.98% and 10.24% | CD11b (%) [3, 28]: 28.2% and 20.4% and 30.4% | Annexin-V (%) [3, 29]: 26.3% and 27.9% and 28.6% | CD11b (%) [3, 29]: 44.3% and 46.2% and 46.6% | Annexin-V (%) [3, 30]: 19.6% and 21.2% and 20.7% | CD11b (%) [3, 30]: 76% and 75.1% and 74.8% | CD11b (%) ([3]; MV4-11 cell line, replicates 1-3 (Figure 2A)): 38.46% and 40.4% and 45.7%

O=C(CCCCCCC(=O)Nc1ccccc1)NO [Vorinostat, reference compound]
CD11b ([1]; ML-2, 48 h): 25.0% and 20.7% and 16.1% | Cell viability ([1]; ML-2, 48 h): 86.1% and 82.9% and 82.7% | CD11b (%) [2, 15]: 37.1% and 43.8% and 41.2% | Cell viability (%) [2, 15]: 69.1% and 74.5% and 73.9% | CD11b (%) [3, 16]: 15.2% and 20.7% and 19.4% | Cell viability (%) [3, 16]: 86.1% and 89% and 91%
